Legend:
Type in all cases: in vitro ADME
[1] = In vitro metabolic stability in pooled human liver S9 fraction; conditions: for remaining at 1 h, 3 µM / half-life at 3 µM: pH 7.4, HLS9 1 mg/mL, 3 µM compound; for remaining at 1 h, 3 µM: cofactors NADPH, UDPGA, PAPS, GSH, 37 °C, read-out: % remaining after 60 min; for half-life at 3 µM: with cofactors, one-phase decay fit, read-out: in vitro t½ (estimated); for microsomal CLint at 3 µM: pH 7.4, HLS9, CLint,u = k/(fu,S9 × [S9]), read-out: CLint,u (unbound intrinsic clearance)
Description: Metabolic stability was assessed using pooled HLS9 and MLS9 fractions. The S9 fractions (20 mg/mL) were diluted to 1 mg/mL with 0.1 M potassium phosphate buffer (pH 7.4). Stock solutions of KB-1517 and KB-1518 (10 mM in DMSO) were diluted in 50% aqueous acetonitrile to prepare working solutions (120 µM). A Tris mix buffer containing 1 M Tris-HCl (pH 7.4), 10 mM MgCl2, and 125 µg/mL alamethicin was prepared. A combined cofactor solution was prepared in 0.1 M potassium phosphate buffer (pH 7.4): 10 mM NADPH, 5 mM UDPGA, 1 mM PAPS, and 25 mM GSH.
The incubation mixture (final volume 200 µL) contained: 125 µL of deionized water, 40 µL of Tris mix buffer, 10 µL of 20 mg protein/mL S9 fraction (final concentration 1 mg protein/mL), and 5 µL of the test compound working solution (final concentration 3 µM). The final concentrations of DMSO and acetonitrile were 0.03% and 1%, respectively. The mixture was pre-incubated at 37 °C for 5 min in a shaking water bath. The reaction was initiated by adding 20 µL of the combined cofactor solution (final concentrations: 1 mM NADPH, 0.5 mM UDPGA, 0.1 mM PAPS, 2.5 mM GSH). Control incubations were performed without the cofactor mixture (replaced with buffer) and at 0 min (quenched immediately after adding cofactors). Incubations were carried out at 37 °C for 0, 15, 30, and 60 min (for stability) or 60 min (for metabolite ID). Reactions were terminated by adding 200 µL of ice-cold acetonitrile containing IS (diclofenac).
Terminated samples were sonicated (5 min), vortexed (1500 rpm, 5 min), and centrifuged (3000 rpm, 20 min, 4 °C). An aliquot (150 µL) of the supernatant was transferred to a 96-well plate for LC-MS/MS analysis as described in Section 2.6.2.
Noncompartmental analysis (NCA) was performed using PKSolver to determine pharmacokinetic parameters from the plasma concentration-time data. Parameters included: maximum plasma concentration (Cmax), time to reach Cmax (tmax), terminal elimination half-life (t1/2), area under the plasma concentration-time curve from time zero to the last measurable concentration (AUClast), area under the plasma concentration-time curve extrapolated to infinity (AUCinf), total body clearance (CL), and volume of distribution at steady state (Vss). Oral bioavailability (F) was calculated as: F(%) = (AUCinf,PO/AUCinf,IV)× (DoseIV/DosePO)×100. Due to the anomalous profile of KB-1517, AUClast was used for its F calculation, and some parameters (t½, CL, Vss for IV; AUCinf for PO) could not be reliably determined (ND). The metabolic rate constant (k) was determined by fitting the in vitro metabolic stability data to a one-phase decay equation via nonlinear regression using GraphPad Prism (Version 10, GraphPad Software, Boston, MA, USA). The in vitro t1/2 was calculated from the equation t1/2 = ln(2)/k. Subsequently, the unbound intrinsic clearance (CLint,u) was calculated as follows: CLint,u = k/(fu,S9 × [S9]), where fu,S9 is the fraction unbound in the S9 incubation and [S9] is the S9 protein concentration.
The metabolic stability of KB-1517 and KB-1518 was evaluated by incubating the compounds (3 µM) with HLS9 and MLS9 fractions (1 mg/mL) in the presence of a comprehensive set of phase I and phase II cofactors (NADPH, UDPGA, PAPS, and GSH) for up to 60 min.

[2] = Plasma protein binding by equilibrium dialysis (RED), human plasma; conditions: equilibrium dialysis 37 °C 4 h, mean ± SD (n = 3), read-out: fu (%) plasma protein binding
Description: (§1) The nonspecific binding of KB-1517 and KB-1518 in human and mouse plasma and liver S9 fractions was determined by equilibrium dialysis using a Rapid Equilibrium Device (RED) system (Thermo Fisher Scientific, Seoul, Republic of Korea).
(§2) Working solutions (200 μM for plasma, 60 μM for S9 fractions) were prepared in 40% aqueous acetonitrile. These were diluted 20-fold into either plasma or S9 incubation buffer (1 mg/mL protein, 200 mM Tris-HCl, 2 mM MgCl2, pH 7.4) to create the final dosing solutions.
(§3) For the dialysis, RED inserts (8 kDa MWCO) were used. Into each device, 200 μL of a dosing solution was added to the sample chamber, and 350 μL of PBS was added to the buffer chamber. The plate was sealed and incubated at 37 °C for 4 h on an orbital shaker (100 rpm) to allow the system to reach equilibrium.
(§4) Following incubation, 50 μL aliquots were taken from both chambers. To ensure analytical consistency, the samples were matrix-matched: the sample chamber aliquot was mixed with 50 μL of PBS, and the buffer chamber aliquot was mixed with 50 μL of the corresponding blank matrix (plasma or S9 incubation buffer). Proteins were then precipitated by adding 200 μL of ice-cold acetonitrile containing diclofenac (1 μg/mL) as IS. The samples were subsequently vortexed, sonicated for 5 min, and centrifuged at 4000× g for 20 min. Finally, a 100 μL aliquot of the resulting supernatant was diluted with 100 μL of HPLC-grade water in a 96-well plate for subsequent LC-MS/MS analysis.

[3] = Plasma protein binding by equilibrium dialysis (RED), mouse plasma; conditions: male, ICR, equilibrium dialysis 37 °C 4 h, mean ± SD (n = 3), read-out: fu (%) plasma protein binding
Description: as §1, §2, §3, §4

[4] = Binding in human liver S9 fraction by equilibrium dialysis (RED); conditions: equilibrium dialysis 37 °C 4 h, mean ± SD (n = 3)
Description: as §1, §2, §3, §4

[5] = Binding in mouse liver S9 fraction by equilibrium dialysis (RED); conditions: equilibrium dialysis 37 °C 4 h, mean ± SD (n = 3)
Description: as §1, §2, §3, §4

| SMILES | remaining at 1 h, 3 µM [1] | half-life at 3 µM [1] | microsomal CLint at 3 µM [1] | fraction unbound at 4 h, 10 µM [2] | fraction unbound at 4 h, 10 µM [3] | fu (%) in liver S9 fractions ([4]; human liver S9, 1 mg/mL protein) | fraction unbound at 4 h, 3 µM ([4]; human, liver S9 fraction, pH 7.4, human liver S9, 1 mg/mL protein, read-out: fu (%) in liver S9 fractions) | fraction unbound at 4 h, 3 µM ([5]; ICR, mouse, liver S9 fraction, pH 7.4, mouse liver S9, 1 mg/mL protein, read-out: fu (%) in liver S9 fractions) | fu (%) in liver S9 fractions ([5]; mouse liver S9, 1 mg/mL protein) |
| --- | --- | --- | --- | --- | --- | --- | --- | --- | --- |
| CN(C)CCn1c(=O)c2nc(-c3ccc(C(F)(F)F)cc3)oc2c2ccccc21 [KB-1517, 5-(2-(dimethylamino)ethyl)-2-(4-(trifluoromethyl)phenyl)oxazolo[4,5-c]quinolin-4(5H)-one] | 81.9 ± 0.7% | 3.09 h | 19.6 µL/min/mg | < 0.02 | < 0.02 | 19.1 ± 0.7% | < 0.2 | < 0.2 | 15.1 ± 0.8% |
| CN(C)CCOc1nc2ccccc2c2oc(-c3ccc(C(F)(F)F)cc3)nc12 [KB-1518, N,N-dimethyl-2-((2-(4-(trifluoromethyl)phenyl)oxazolo[4,5-c]quinolin-4-yl)oxy)ethan-1-amine] | 74.2 ± 2.5% | 1.88 h | 101 µL/min/mg | – | – | – | – | – | – |
